Results published in patent US7598245B2 (Vertex Pharmaceuticals Incorporated, priority 2003, dated 2009).

What was measured:
Assay type in all cases: biochemical
CDK-2/Cyclin A = target: T1, CDK-2/Cyclin A (Homo sapiens, UniProt P24941); experiment: Inhibition of CDK-2, coupled enzyme assay; details: 100 μM ATP, 30° C.
T1 construct: 25 nM CDK-2/Cyclin A
Procedure: Compounds are screened for their ability to inhibit CDK-2/Cyclin A using a standard coupled enzyme assay [Fox et al. Protein Sci. 1998, 7, 2249]. Reactions were carried out in 100 mM HEPES (pH 7.5), 10 mM MgCl2, 25 mM NaCl, 1 mM DTT and 1.5% DMSO. Final substrate concentrations in the assay are 100 μM ATP (Sigma chemicals) and 100 μM peptide (American Peptide, Sunnyvale, Calif.). Assays are carried out at 30° C. and 25 nM CDK-2/Cyclin A. Final concentrations of the components of the coupled enzyme system are 2.5 mM phosphoenolpyruvate, 350 μM NADH, 30 μg/ml pyruvate kinase and 10 μg/ml lactate dehydrogenase.
An assay stock buffer solution is prepared containing all of the reagents listed above, with the exception of CDK-2/Cyclin A, DTT and the test compound of interest. 56 μl of the test reaction is placed in a 384 well plate followed by addition of 1 μl of 2 mM DMSO stock containing the test compound (final compound concentration 30 μM). The plate is preincubated for ˜10 minutes at 30° C. and the reaction initiated by addition of 10 μl of enzyme (final concentration 25 nM). Rates of reaction are obtained using a BioRad Ultramark plate reader (Hercules, Calif.) over a 5 minute read time at 30° C. Ki values are determined according to standard methods.

human Src kinase = target: T2, human Src kinase (Homo sapiens, UniProt P12931); experiment: Src inhibition assay B: spectrophotometric (uv-vis) coupled enzyme assay; details: 100 μM ATP
T2 construct: 25 nM of recombinant human Src kinase
T2 sequence (P12931 whole entry): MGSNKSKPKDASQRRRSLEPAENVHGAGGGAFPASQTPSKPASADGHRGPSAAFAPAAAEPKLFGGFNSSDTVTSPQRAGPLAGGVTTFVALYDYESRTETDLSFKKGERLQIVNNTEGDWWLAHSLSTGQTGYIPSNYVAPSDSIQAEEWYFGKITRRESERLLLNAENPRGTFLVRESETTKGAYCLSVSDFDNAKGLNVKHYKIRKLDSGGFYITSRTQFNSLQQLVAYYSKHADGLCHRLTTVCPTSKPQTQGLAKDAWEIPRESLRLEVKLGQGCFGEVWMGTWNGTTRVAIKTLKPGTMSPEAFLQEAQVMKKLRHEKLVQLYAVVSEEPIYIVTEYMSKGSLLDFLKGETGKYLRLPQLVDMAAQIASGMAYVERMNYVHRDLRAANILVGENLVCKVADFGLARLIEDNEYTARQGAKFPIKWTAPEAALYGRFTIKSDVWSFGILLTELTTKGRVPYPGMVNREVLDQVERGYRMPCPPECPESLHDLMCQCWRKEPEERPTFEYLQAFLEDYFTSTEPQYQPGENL
Procedure: The compounds are evaluated as inhibitors of human Src kinase using either a radioactivity-based assay or spectrophotometric assay.
Src Inhibition Assay B: Spectrophotometric Assay
The ADP produced from ATP by the human recombinant Src kinase-catalyzed phosphorylation of poly Glu-Tyr substrate is quantified using a coupled enzyme assay [Fox et al. Protein Sci. 1998, 7, 2249]. In this assay one molecule of NADH is oxidised to NAD for every molecule of ADP produced in the kinase reaction. The disappearance of NADH is conveniently followed at 340 nm.
The following are the final concentrations of the assay components: 0.025 M HEPES (pH 7.6), 10 mM MgCl2, 2 mM DTT, 0.25 mg/ml poly Glu-Tyr, and 25 nM of recombinant human Src kinase. Final concentrations of the components of the coupled enzyme system are 2.5 mM phosphoenolpyruvate, 200 μM NADH, 30 μg/ml pyruvate kinase and 10 μg/ml lactate dehydrogenase.
In a typical assay, all the reaction components with the exception of ATP are pre-mixed and aliquoted into assay plate wells. Inhibitors dissolved in DMSO are added to the wells to give a final DMSO concentration of 2.5%. The assay plate is incubated at 30° C. for 10 min before initiating the reaction with 100 μM ATP. The absorbance change at 340 nm with time, the rate of the reaction, is monitored on a molecular devices plate reader. The data of rate as a function of the inhibitor concentration is fitted to competitive inhibition kinetics model to get the Ki for the compound.

JAK-3 = target: T3, JAK-3 (Homo sapiens, UniProt P52333); experiment: JAK3 inhibition assay (ELISA, Poly (Glu, Ala, Tyr) coated plates); details: 2 μM ATP
T3 sequence (P52333 1-1124): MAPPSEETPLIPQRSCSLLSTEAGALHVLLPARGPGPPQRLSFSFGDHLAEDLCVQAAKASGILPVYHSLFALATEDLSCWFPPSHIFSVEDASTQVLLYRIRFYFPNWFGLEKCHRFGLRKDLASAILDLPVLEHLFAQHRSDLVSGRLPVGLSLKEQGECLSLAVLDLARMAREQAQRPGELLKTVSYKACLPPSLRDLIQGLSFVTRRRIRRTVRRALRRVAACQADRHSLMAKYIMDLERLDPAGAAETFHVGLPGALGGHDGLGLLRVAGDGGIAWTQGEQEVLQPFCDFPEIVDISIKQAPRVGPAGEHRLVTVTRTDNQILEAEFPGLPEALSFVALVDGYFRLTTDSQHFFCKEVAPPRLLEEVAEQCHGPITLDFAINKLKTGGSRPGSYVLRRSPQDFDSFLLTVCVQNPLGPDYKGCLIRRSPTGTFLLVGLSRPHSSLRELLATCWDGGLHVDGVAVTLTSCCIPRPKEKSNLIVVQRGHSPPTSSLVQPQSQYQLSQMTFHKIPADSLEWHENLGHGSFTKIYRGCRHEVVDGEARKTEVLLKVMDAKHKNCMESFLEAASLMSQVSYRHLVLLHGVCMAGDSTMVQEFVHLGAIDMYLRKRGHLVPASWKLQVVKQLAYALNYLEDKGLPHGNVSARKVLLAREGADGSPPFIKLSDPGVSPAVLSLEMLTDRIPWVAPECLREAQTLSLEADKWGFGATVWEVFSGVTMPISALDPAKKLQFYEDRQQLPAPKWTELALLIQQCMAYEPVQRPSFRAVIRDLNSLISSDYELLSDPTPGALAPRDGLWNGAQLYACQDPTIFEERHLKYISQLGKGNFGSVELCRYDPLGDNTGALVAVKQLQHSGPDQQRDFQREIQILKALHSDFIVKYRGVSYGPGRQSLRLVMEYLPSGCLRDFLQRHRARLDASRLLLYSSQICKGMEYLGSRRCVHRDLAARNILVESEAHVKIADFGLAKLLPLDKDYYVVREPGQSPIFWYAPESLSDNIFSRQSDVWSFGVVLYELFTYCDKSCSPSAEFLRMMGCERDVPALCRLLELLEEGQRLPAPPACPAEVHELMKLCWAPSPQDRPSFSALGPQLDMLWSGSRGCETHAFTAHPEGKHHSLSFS
Procedure: Compound inhibition of JAK was assayed by the method described by G. R. Brown, et al, Bioorg. Med. Chem. Lett. 2000, vol. 10, pp 575-579 in the following manner. Into Maxisorb plates, previously coated at 4° C. with Poly (Glu, Ala, Tyr) 6:3:1 then washed with phosphate buffered saline 0.05% and Tween-(PBST), was added 2 μM ATP, 5 mM MgCl2, and a solution of compound in DMSO. The reaction was started with JAK enzyme and the plates incubated for 60 minutes at 30° C. The plates were then washed with PBST, 100 μL HRP-Conjugated 4G10 antibody was added, and the plate incubated for 90 minutes at 30° C. The plate was again washed with PBST, 100 μL TMB solution is added, and the plates were incubated for another 30 minutes at 30° C. Sulfuric acid (100 μL of 1M) was added to stop the reaction and the plate is read at 450 nm to obtain the optical densities for analysis to determine Ki values.

For CCOC(=O)c1ccc(Nc2ncn(-c3ccnc(N4CCCN(C(C)=O)CC4)c3)n2)cc1 [Compound I-76], the Ki (CDK-2/Cyclin A) was over 1000 nM, the Ki (human Src kinase) was over 1000 nM and the Ki (JAK-3) was 10 to 1000 nM.

CC(=O)N1[C@H](C)CN(c2cc(-n3cnc(Nc4ccc(NC(=O)N(C)C)cc4)n3)ccn2)C[C@@H]1C [Compound I-77, 3-(4-{1-[2-(4-Acetyl-3,5-dimethyl-piperazin-1-yl)-pyridin-4-yl]-1H-[1,2,4]triazol-3-ylamino}-phenyl)-1,1-dimethyl-urea] showed a Ki (CDK-2/Cyclin A) of over 1000 nM, a Ki (human Src kinase) of 500 to 1000 nM and a Ki (JAK-3) of 10 to 1000 nM.

Compound COC(=O)Nc1ccc(Nc2ncn(-c3ccnc(N4C[C@@H](C)N(C(C)=O)[C@@H](C)C4)c3)n2)cc1 [Compound I-78] has a Ki (CDK-2/Cyclin A) of under 500 nM, a Ki (human Src kinase) of under 500 nM and a Ki (JAK-3) of 10 to 1000 nM.

CC(=O)N1[C@H](C)CN(c2cc(-n3cnc(Nc4ccc(NC(=O)C(F)(F)F)cc4)n3)ccn2)C[C@@H]1C [Compound I-79] was tested, and the Ki (CDK-2/Cyclin A) was under 500 nM, the Ki (human Src kinase) was under 500 nM and the Ki (JAK-3) was under 10 nM.

CC(=O)N1[C@H](C)CN(c2cc(-n3cnc(Nc4ccc(NC(=O)c5cccs5)cc4)n3)ccn2)C[C@@H]1C [Compound I-80] showed a Ki (CDK-2/Cyclin A) of under 500 nM, a Ki (human Src kinase) of 500 to 1000 nM and a Ki (JAK-3) of 10 to 1000 nM.

With CC(=O)N1[C@H](C)CN(c2cc(-n3cnc(Nc4ccc(NC(=O)c5ccco5)cc4)n3)ccn2)C[C@@H]1C [Compound I-81, Furan-2-carboxylic acid (4-{1-[2-(4-acetyl-3,5-dimethyl-piperazin-1-yl)-pyridin-4-yl]-1H-[1,2,4]triazol-3-ylamino}-phenyl)-amide] the Ki (CDK-2/Cyclin A) was 500 to 1000 nM, the Ki (human Src kinase) was under 500 nM and the Ki (JAK-3) was 10 to 1000 nM.

CC(=O)N1[C@H](C)CN(c2cc(-n3cnc(Nc4ccc(N)cc4)n3)ccn2)C[C@@H]1C [Compound I-82] was tested, and the Ki (CDK-2/Cyclin A) was under 500 nM, the Ki (human Src kinase) was under 500 nM and the Ki (JAK-3) was under 10 nM.

For CC(=O)N1[C@H](C)CN(c2cc(-n3cnc(Nc4ccc(N5CCOCC5)cc4)n3)ccn2)C[C@@H]1C [Compound I-85, 1-(2,6-Dimethyl-4-{4-[3-(4-morpholin-4-yl-phenylamino)-[1,2,4]triazol-1-yl]-pyridin-2-yl}-piperazin-1-yl)-ethanone], the Ki (CDK-2/Cyclin A) was under 500 nM, the Ki (human Src kinase) was 500 to 1000 nM and the Ki (JAK-3) was 10 to 1000 nM.

CCCOC(=O)Nc1ccc(Nc2ncn(-c3ccnc(N4C[C@@H](C)N(C(C)=O)[C@@H](C)C4)c3)n2)cc1 [Compound I-88] was tested, and the Ki (CDK-2/Cyclin A) was under 500 nM, the Ki (human Src kinase) was under 500 nM and the Ki (JAK-3) was 10 to 1000 nM.

CC(=O)N1[C@H](C)CN(c2cc(-n3cnc(Nc4ccc(NC(=O)OC(C)C)cc4)n3)ccn2)C[C@@H]1C [Compound I-89] was tested, and the Ki (CDK-2/Cyclin A) was 500 to 1000 nM, the Ki (human Src kinase) was 500 to 1000 nM and the Ki (JAK-3) was 10 to 1000 nM.

CC(=O)N1[C@H](C)CN(c2cc(-n3cnc(Nc4ccc(NC(=O)OCC(C)C)cc4)n3)ccn2)C[C@@H]1C [Compound I-90] gave a Ki (CDK-2/Cyclin A) of 500 to 1000 nM, a Ki (human Src kinase) of 500 to 1000 nM and a Ki (JAK-3) of 10 to 1000 nM.

For CC(=O)N1[C@H](C)CN(c2cc(-n3cnc(Nc4ccc(NC(=O)OCC(C)(C)C)cc4)n3)ccn2)C[C@@H]1C [Compound I-91], the Ki (CDK-2/Cyclin A) was 500 to 1000 nM, the Ki (human Src kinase) was 500 to 1000 nM and the Ki (JAK-3) was 10 to 1000 nM.

CC(=O)N1[C@H](C)CN(c2cc(-n3cnc(Nc4ccc(N5CCN(S(=O)(=O)c6ccc(C)cc6)CC5)cc4)n3)ccn2)C[C@@H]1C [Compound I-92] gave a Ki (CDK-2/Cyclin A) of 500 to 1000 nM, a Ki (human Src kinase) of 500 to 1000 nM and a Ki (JAK-3) of under 10 nM.

O=C(Nc1cc(-n2cnc(Nc3ccccc3)n2)ccn1)C1CCCCC1 [Compound I-93] gave a Ki (CDK-2/Cyclin A) of 500 to 1000 nM, a Ki (human Src kinase) of 500 to 1000 nM and a Ki (JAK-3) of over 1000 nM.

O=C(CC1CCCC1)Nc1cc(-n2cnc(Nc3ccccc3)n2)ccn1 [Compound I-94, 2-Cyclopentyl-N-[4-(3-phenylamino-[1,2,4]triazol-1-yl)-pyridin-2-yl]-acetamide] was tested, and the Ki (CDK-2/Cyclin A) was over 1000 nM, the Ki (human Src kinase) was under 500 nM and the Ki (JAK-3) was 10 to 1000 nM.

O=C(CCc1ccccc1)Nc1cc(-n2cnc(Nc3ccccc3)n2)ccn1 [Compound I-95] gave a Ki (CDK-2/Cyclin A) of 500 to 1000 nM, a Ki (human Src kinase) of under 500 nM and a Ki (JAK-3) of over 1000 nM.

Work on O=C(Cc1ccccc1)Nc1cc(-n2cnc(Nc3ccccc3)n2)ccn1 [Compound I-96] yielded a Ki (CDK-2/Cyclin A) of under 500 nM, a Ki (human Src kinase) of under 500 nM and a Ki (JAK-3) of over 1000 nM.

CC(=O)N1[C@H](C)CN(c2cc(-n3cnc(Nc4ccc(N5CCN(C(=O)OC(C)(C)C)CC5)cc4)n3)ccn2)C[C@@H]1C [Compound I-97, 4-(4-{1-[2-(4-Acetyl-3,5-dimethyl-piperazin-1-yl)-pyridin-4-yl]-1H-[1,2,4]triazol-3-ylamino}-phenyl)-piperazine-1-carboxylic acid tert-butyl ester] showed a Ki (CDK-2/Cyclin A) of under 500 nM, a Ki (human Src kinase) of under 500 nM and a Ki (JAK-3) of 10 to 1000 nM.

With CCNC(=O)Nc1ccc(Nc2ncn(-c3ccnc(N4C[C@@H](C)N(C(C)=O)[C@@H](C)C4)c3)n2)cc1 [Compound I-98, 1-(4-{1-[2-(4-Acetyl-3,5-dimethyl-piperazin-1-yl)-pyridin-4-yl]-1H-[1,2,4]triazol-3-ylamino}-phenyl)-3-ethyl-urea] the Ki (CDK-2/Cyclin A) was under 500 nM, the Ki (human Src kinase) was under 500 nM and the Ki (JAK-3) was under 10 nM.

Compound CCCNC(=O)Nc1ccc(Nc2ncn(-c3ccnc(N4C[C@@H](C)N(C(C)=O)[C@@H](C)C4)c3)n2)cc1 [Compound I-99] has a Ki (CDK-2/Cyclin A) of under 500 nM, a Ki (human Src kinase) of under 500 nM and a Ki (JAK-3) of 10 to 1000 nM.

In the case of CC(=O)N1[C@H](C)CN(c2cc(-n3cnc(Nc4ccc(NC(=O)NC(C)C)cc4)n3)ccn2)C[C@@H]1C [Compound I-100], the Ki (CDK-2/Cyclin A) is reported as under 500 nM, the Ki (human Src kinase) is reported as under 500 nM and the Ki (JAK-3) is reported as under 10 nM.

CC(=O)N1[C@H](C)CN(c2cc(-n3cnc(Nc4ccc(NC(=O)NC(C)(C)C)cc4)n3)ccn2)C[C@@H]1C [Compound I-101] showed a Ki (CDK-2/Cyclin A) of 500 to 1000 nM, a Ki (human Src kinase) of 500 to 1000 nM and a Ki (JAK-3) of 10 to 1000 nM.

CC(C)(C)CC(=O)Nc1cc(-n2cnc(Nc3ccccc3)n2)ccn1 [Compound I-102] gave a Ki (CDK-2/Cyclin A) of over 1000 nM, a Ki (human Src kinase) of under 500 nM and a Ki (JAK-3) of over 1000 nM.
